ChEMBL document CHEMBL1201862, “PubChem BioAssay data set” (2004)
The source made the active and inactive calls.

Legend:
[1] = target: T1, E3 ubiquitin-protein ligase XIAP (Homo sapiens, UniProt P98170); test: XIAP antagonists, biochemical, IAP family, fluorescence polarization (AID 1018); assay type: functional
[2] = target: T1, E3 ubiquitin-protein ligase XIAP; test: Counter Screen using XIAP-Bir3 for Chemical Antagonists of Bir1/2 domains of IAP-family anti-apoptotic proteins. [Related pubchem assays (depositor defined):AID1018, AID1449, AID1514, AID1638, AID1749, AID1750, AID488957, AID488963]
Bcl-2-related protein A1 [3] = target: T2, Bcl-2-related protein A1 (Mus musculus, UniProt Q07440); test: Bfl-1 binding inhibitors, SAR follow-up, biochemical, fluorescence polarization (AID 1070)
T2 sequence (Q07440 whole entry): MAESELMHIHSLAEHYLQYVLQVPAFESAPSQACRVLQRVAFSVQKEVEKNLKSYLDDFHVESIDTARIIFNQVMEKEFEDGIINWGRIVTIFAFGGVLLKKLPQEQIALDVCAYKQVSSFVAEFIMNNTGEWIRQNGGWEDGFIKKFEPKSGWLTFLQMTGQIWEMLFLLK

[4] = target: Glyceraldehyde-3-phosphate dehydrogenase (Homo sapiens, UniProt P04406)
Bcl-2-related protein A1 [5] = target: T2, Bcl-2-related protein A1; test: Bfl-1 inhibitors blocking BH3 peptide binding, confirmation, biochemical, TR-FRET, mouse Bfl-1 (AID 621);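 further: TR-FRET binding of GST-Bfl-1 to FITC-labelled Bid peptide via terbium antibody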
[6] = target: T3, Serine/threonine-protein phosphatase (Candida dubliniensis (strain CD36 / CBS 7987 / NCPF 3949 / NRRLY-17841) (Yeast), UniProt B9W6M3); test: calcineurin pathway inhibitors in yeast reporter, dose response, S. cerevisiae, CDRE-lacZ, luminescence, secondary (AID 2388); assay type: functional, cell-based;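 further: yeast reporter cells carrying a calcineurin-responsive lacZ construct stimulated with calcium chloride; luminescent beta-galactosidase reporter signal in whole cells rather than isolated phosphatase activity; potency for inhibition where a drop in reporter signal means calcineurin blockade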
T3 sequence (B9W6M3 whole entry): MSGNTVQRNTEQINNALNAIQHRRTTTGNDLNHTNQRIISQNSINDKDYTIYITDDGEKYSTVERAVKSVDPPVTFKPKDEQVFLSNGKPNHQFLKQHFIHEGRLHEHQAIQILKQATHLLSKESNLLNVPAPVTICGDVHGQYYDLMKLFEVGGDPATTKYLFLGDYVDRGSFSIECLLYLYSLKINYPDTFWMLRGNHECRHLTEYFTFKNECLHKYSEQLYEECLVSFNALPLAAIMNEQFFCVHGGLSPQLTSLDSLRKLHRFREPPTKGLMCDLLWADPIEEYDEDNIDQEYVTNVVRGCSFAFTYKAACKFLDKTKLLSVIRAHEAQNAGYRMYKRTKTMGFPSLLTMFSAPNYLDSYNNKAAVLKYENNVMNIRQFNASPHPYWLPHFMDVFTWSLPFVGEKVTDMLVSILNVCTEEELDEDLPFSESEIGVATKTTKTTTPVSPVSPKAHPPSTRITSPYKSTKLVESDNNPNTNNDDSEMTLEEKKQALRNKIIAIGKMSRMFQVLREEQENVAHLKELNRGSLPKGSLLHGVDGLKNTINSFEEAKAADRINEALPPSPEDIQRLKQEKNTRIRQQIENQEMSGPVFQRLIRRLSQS

[7] = Luminescence Cell-Based Dose Confirmation HTS to Identify Inhibitors of Polyadenylation.; assay type: functional
[8] = NIH-3T3 fibroblast cytotoxicity, dose response, cytotoxicity control, cell-based, fluorescence, Alamar Blue, secondary assay (AID 2327); assay type: functional;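 further: NIH-3T3 mouse fibroblasts cultured with fluconazole at 8 µg/mL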
[9] = target: ATP-dependent molecular chaperone HSP82 (Candida albicans (strain WO-1) (Yeast), UniProt C4YTQ8); test: loss of DOC-induced GRE-beta-galactosidase reporter signal, dose response, Hsp90 inhibitor project, S. cerevisiae, luminescence (AID 2400); assay type: functional, cell-based;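 further: beta-galactosidase luminescence from glucocorticoid response element reporter as proxy for Hsp90 function; inhibitor potency where signal loss means Hsp90 inhibition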
[10] = C. albicans growth with fluconazole, confirmation, fluorescence, retest (AID 2467); assay type: functional, cell-based
[11] = target: Sphingosine 1-phosphate receptor 3 (Homo sapiens, UniProt Q99500); test: Dose Response Cell-Based Assay for Agonists of the Sphingosine 1-Phosphate Receptor 3 (S1P3): Purchased Analogues. [Related pubchem assays: 373, 439 ]; assay type: functional
[12] = target: Sphingosine 1-phosphate receptor 1 (Homo sapiens, UniProt P21453); test: Dose Response Cell-Based Assay for Agonists of the Sphingosine 1-Phosphate Receptor 1 (S1P1): Purchased Analogues. [Related pubchem assays: 1192, 373, 439 ]; assay type: functional
[13] = target: T4, Sphingosine 1-phosphate receptor 2 (Homo sapiens, UniProt O95136); test: Dose Response Cell-Based Assay for Agonists of the Sphingosine 1-Phosphate Receptor 2 (S1P2): Purchased Analogues. [Related pubchem assays: 1192, 373, 439 ]; assay type: functional
NADPH oxidase 1 = NADPH oxidase 1 (Homo sapiens, UniProt Q9Y5S8); assay type: functional, cell-based;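 further: Cell-based assay with luminescence read-out, IC50 derived from inhibitor dose-response curves; intracellular ROS from endogenous NOX1 in intact HT29 colon cancer cells; potency of inhibitors that lower the ROS luminescence signal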
[14] = target: T4, Sphingosine 1-phosphate receptor 2; test: Dose Response Cell Based Assay for Agonists of the S1P2 Receptor of Purchased Analogues. [Related pubchem assays: 729, 843, 854, 736 ]; assay type: functional
Estrogen receptor [15] = target: T5, Estrogen receptor (Homo sapiens, UniProt P03372);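 further: potency for inhibiting coactivator peptide recruitment to the receptor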
Estrogen receptor beta = Estrogen receptor beta (Homo sapiens, UniProt Q92731);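 further: recombinant ER-beta bound to coactivator SRC1 peptide in presence of estradiol agonist; inhibitors block coactivator peptide binding and lower the FRET signal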
Procathepsin L = Procathepsin L (Homo sapiens, UniProt P07711); test: cathepsin L inhibitors, dose response, counter-screen for M1/M17 aminopeptidase inhibitor project, biochemical, QFRET, 1536-well (AID 2214)
Aminopeptidase N = target: T6, Aminopeptidase N (Plasmodium falciparum FcB1/Columbia, UniProt O96935); test: P. falciparum M1AAP inhibitors, biochemical, fluorogenic H-Leu-NHMec substrate, 1536-well (AID 1445); parameters: species or system Plasmodium falciparum 3D7, 3D7
T6 sequence (O96935 whole entry): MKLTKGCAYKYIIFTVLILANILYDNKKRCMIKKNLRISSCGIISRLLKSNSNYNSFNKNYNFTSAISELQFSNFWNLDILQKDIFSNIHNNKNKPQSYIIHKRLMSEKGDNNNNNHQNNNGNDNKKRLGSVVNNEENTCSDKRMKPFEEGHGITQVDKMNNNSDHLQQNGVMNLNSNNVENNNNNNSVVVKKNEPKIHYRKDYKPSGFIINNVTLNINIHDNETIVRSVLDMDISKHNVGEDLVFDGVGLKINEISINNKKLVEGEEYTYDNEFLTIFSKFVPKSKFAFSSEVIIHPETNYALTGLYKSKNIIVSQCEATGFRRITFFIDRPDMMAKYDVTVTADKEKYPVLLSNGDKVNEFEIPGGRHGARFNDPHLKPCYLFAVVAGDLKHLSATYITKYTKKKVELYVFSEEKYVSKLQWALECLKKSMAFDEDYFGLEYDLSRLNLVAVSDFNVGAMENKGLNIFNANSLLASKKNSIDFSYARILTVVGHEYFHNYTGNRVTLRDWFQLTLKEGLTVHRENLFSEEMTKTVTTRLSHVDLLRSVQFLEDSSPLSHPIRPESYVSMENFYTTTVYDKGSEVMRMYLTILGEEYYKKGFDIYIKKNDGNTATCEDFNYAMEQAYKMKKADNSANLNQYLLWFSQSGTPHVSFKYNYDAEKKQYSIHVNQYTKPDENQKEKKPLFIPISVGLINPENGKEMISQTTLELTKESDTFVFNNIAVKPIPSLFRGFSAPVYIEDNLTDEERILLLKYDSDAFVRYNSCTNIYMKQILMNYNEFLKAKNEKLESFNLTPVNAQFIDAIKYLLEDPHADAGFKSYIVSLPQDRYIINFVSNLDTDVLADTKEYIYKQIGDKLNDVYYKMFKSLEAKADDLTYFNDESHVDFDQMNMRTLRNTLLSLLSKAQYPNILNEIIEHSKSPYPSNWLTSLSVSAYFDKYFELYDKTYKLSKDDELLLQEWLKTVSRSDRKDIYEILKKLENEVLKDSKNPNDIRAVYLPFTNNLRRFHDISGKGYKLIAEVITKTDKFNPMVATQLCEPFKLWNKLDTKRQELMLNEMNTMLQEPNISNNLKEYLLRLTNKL

Aspartyl aminopeptidase = Aspartyl aminopeptidase (Plasmodium falciparum 3D7, UniProt Q8I2J3); test: Counterscreen for inhibitors of M1 and M17 aminopeptidases: QFRET-based biochemical high throughput dose response assay for inhibitors of the Plasmodium falciparum M18 Aspartyl Aminopeptidase (PFM18AAP). [Related PubChem assays: 1619 (Screening assay (M17LAP inhibitors).), 1445 (Screening assay (M1AAP inhibitors).)]
[16] = Luminescence-based dose response cell-based high throughput screening assay for cytotoxic compounds using the IEC-6 intestinal epithelial cell line. [Related pubchem assays: 1858 (Summary AID.), 1825 (Counterscreen.), 1907 (Confirmation screen.)]; assay type: functional
[17] = Luminescence Cell-Based Dose Retest to Confirm Inhibitors of Cancer Stem Cells. [Related pubchem assays (depositor defined):AID2717, AID2721]; assay type: functional; details: Homo sapiens
[18] = cytotoxicity in HEK-293T cells, dose response, cytotoxicity control for TCR NF-kB inhibitor project, luminescence, T-cell screen hits (AID 489026); assay type: functional, cell-based;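 further: cells exposed to compound about 14 hours before the viability readout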
[19] = target: Inward rectifier potassium channel 2 (Mus musculus, UniProt P35561); test: Manual electrophysiological patch clamp assay for SAR compounds that inhibit/block inward-rectifying potassium ion channel Kir2.1. [Related pubchem assays: 1843 (Summary assay for Kir2.1 inhibitor assays.), 1672 (Primary HTS of 305616 compounds where 2592 were identified as active.)]; assay type: functional
[20] = target: Potassium voltage-gated channel subfamily KQT member 2 (Rattus norvegicus, UniProt O88943, W236L); test: KCNQ2 channel potentiators, dose response, mechanism study for KCNQ2 potentiator project, cell-based, automated electrophysiology (AID 2603); assay type: functional
Estrogen receptor [21] = target: T5, Estrogen receptor; test: potentiators of ERα–SRC-1 coactivator binding, dose response, biochemical, TR-FRET, ERα LBD (AID 737)
[22] = Luminescence Cell-Based Dose Confirmation HTS to Identify Activators of 5'UTR Stem-Loop Driven Alpha-Synuclein mRNA Translation in H4 Neuroglioblastoma Cells. [Related pubchem assays: 1829 (Project Summary), 1814 (Primary HTS)]; assay type: functional
[23] = Luminescence Cell-Based Dose Response to Identify Activators of 5'UTR Stem-Loop Driven Prion Protein mRNA Translation in H4-C Neuroglioblastoma Cells. [Related pubchem assays: 1829 (Project Summary), 1814 (Primary HTS)]; assay type: functional
[24] = Luminescence Cell-Based Dose Confirmation to Identify Activators of 5'UTR Stem-Loop Driven Alpha-Synuclein mRNA Translation in H4 Neuroglioblastoma Cells. [Related pubchem assays: 1829 (Project Summary), 1814 (Primary HTS)]; assay type: functional
H4 = test: Luminescence Cell-Based Dose Response HTS to Identify Activators of 5'UTR Stem-Loop Driven Prion Protein mRNA Translation in H4 Neuroglioblastoma Cells. [Related pubchem assays: 1829 (Project Summary), 1814 (Primary HTS)]; assay type: functional; details: Homo sapiens
[25] = Luminescence Cell-Based Dose Response to Identify Activators of Luciferase Translation or Activity in H4-C Neuroglioblastoma Cells. [Related pubchem assays: 1829 (Project Summary), 1814 (Primary HTS)]; assay type: functional
[26] = Luminescence Cell-Based Dose Response HTS to Identify Activators of Luciferase Translation or Activity in H4 […] Cells. [Related pubchem assays: 1829 (Project Summary), 1814 (Primary HTS)]; assay type: functional
HeLa = test: HeLa cell cytotoxicity, dose response, cytotoxicity control for MITF activator project, CellTiter-Glo luminescence, cherry-pick samples (AID 540259); assay type: functional, cell-based; details: Homo sapiens

T1 sequence (P98170 whole entry): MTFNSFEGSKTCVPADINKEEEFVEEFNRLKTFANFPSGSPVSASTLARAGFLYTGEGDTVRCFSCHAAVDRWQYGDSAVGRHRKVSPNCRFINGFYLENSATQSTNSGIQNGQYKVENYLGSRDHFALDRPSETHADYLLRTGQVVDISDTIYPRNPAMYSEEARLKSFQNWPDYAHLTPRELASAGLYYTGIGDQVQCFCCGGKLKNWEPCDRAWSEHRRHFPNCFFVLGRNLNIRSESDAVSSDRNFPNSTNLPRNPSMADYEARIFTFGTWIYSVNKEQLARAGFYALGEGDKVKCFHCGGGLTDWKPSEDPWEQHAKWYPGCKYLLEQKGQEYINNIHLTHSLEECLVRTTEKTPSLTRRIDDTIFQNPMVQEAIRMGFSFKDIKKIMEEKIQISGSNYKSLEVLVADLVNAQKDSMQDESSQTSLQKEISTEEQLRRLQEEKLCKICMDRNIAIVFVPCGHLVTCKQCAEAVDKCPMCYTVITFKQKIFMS
T4 sequence (O95136 whole entry): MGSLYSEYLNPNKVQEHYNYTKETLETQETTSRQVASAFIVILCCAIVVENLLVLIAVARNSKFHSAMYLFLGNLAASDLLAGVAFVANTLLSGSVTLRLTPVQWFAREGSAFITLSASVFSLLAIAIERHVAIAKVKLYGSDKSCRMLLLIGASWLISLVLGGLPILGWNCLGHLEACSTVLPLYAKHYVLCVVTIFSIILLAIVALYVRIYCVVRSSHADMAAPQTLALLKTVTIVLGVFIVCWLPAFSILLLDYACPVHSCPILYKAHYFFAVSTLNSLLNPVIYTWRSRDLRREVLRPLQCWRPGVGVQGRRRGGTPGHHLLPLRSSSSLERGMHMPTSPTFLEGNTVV
T5 sequence (P03372 whole entry): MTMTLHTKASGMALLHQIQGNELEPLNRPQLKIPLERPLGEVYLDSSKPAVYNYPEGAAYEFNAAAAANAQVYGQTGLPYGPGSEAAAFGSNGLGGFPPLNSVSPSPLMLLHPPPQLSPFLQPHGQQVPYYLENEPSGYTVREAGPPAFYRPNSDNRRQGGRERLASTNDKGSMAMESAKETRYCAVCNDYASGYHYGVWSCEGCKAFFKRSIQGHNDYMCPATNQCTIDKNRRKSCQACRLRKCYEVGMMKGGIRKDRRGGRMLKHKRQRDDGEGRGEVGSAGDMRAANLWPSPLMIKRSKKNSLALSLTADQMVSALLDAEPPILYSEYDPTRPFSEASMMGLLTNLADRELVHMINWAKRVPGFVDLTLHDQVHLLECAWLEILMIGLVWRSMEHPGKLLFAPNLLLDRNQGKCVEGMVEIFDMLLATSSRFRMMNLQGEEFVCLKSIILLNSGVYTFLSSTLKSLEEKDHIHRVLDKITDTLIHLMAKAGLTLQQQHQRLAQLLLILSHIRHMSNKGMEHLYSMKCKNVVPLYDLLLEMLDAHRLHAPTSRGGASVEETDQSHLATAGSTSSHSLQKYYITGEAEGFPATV
Sequence of Aspartyl aminopeptidase (Q8I2J3 whole entry): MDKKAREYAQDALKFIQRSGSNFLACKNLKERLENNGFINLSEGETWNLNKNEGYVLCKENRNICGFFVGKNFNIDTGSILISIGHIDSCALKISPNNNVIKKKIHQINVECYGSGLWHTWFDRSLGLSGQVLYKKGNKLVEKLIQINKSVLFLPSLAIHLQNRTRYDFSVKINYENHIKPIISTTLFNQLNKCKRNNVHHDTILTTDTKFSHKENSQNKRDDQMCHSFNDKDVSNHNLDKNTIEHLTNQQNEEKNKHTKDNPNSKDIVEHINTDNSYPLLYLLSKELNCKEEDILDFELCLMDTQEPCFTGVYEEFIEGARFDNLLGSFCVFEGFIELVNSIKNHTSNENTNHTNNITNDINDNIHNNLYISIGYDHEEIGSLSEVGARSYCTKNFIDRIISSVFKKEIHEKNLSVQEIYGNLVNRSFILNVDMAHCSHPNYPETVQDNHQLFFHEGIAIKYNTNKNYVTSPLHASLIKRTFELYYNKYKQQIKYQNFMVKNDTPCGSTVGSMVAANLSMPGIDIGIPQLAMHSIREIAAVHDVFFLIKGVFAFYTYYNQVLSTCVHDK
Sequence of Sphingosine 1-phosphate receptor 1 (P21453 whole entry): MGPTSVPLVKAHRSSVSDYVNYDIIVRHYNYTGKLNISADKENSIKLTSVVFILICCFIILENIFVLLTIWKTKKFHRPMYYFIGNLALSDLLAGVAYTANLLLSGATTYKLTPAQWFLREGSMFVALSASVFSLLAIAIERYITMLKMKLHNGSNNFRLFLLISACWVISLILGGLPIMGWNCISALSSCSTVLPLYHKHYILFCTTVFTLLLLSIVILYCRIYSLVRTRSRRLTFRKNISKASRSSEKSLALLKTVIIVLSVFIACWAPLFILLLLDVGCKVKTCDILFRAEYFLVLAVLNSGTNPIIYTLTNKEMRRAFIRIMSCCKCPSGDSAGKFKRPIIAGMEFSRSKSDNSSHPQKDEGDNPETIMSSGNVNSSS
Sequence of Inward rectifier potassium channel 2 (P35561 whole entry): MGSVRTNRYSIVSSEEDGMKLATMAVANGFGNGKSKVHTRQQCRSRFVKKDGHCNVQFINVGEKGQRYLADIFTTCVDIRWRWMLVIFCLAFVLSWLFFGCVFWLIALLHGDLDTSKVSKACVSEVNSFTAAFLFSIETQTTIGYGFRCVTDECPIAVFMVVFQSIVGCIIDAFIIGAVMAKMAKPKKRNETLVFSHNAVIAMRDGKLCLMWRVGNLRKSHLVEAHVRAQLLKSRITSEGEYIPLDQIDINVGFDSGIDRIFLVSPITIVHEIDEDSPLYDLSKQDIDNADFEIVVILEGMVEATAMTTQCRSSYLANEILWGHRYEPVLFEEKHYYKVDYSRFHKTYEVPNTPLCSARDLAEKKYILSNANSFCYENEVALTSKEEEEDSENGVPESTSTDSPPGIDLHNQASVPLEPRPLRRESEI
Sequence of Glyceraldehyde-3-phosphate dehydrogenase (P04406 whole entry): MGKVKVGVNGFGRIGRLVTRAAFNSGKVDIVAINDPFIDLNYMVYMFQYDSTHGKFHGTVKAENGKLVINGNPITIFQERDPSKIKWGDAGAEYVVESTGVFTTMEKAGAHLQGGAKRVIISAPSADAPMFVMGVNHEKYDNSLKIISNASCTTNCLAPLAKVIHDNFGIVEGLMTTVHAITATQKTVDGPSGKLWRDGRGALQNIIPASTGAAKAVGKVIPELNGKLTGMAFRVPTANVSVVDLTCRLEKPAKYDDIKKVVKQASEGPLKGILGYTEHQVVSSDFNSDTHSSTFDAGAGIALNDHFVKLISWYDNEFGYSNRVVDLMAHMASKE
Sequence of ATP-dependent molecular chaperone HSP82 (C4YTQ8 whole entry): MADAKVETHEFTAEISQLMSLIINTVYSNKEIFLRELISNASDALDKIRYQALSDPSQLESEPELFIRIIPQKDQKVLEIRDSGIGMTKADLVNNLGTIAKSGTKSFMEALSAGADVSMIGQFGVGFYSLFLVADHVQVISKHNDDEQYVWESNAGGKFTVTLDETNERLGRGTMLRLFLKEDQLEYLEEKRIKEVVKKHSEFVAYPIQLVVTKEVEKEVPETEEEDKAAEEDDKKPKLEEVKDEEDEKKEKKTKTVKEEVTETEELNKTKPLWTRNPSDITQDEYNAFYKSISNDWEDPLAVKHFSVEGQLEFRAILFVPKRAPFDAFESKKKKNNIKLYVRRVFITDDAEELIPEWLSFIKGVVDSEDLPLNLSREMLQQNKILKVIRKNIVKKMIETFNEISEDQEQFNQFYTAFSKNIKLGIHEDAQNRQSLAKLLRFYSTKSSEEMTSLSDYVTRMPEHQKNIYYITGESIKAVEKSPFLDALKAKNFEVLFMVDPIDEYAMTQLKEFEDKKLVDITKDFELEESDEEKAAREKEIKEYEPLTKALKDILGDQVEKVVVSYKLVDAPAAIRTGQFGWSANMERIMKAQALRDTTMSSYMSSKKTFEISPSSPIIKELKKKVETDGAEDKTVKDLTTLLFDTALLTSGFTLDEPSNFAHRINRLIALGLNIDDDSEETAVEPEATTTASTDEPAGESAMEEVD
Sequence of Sphingosine 1-phosphate receptor 3 (Q99500 whole entry): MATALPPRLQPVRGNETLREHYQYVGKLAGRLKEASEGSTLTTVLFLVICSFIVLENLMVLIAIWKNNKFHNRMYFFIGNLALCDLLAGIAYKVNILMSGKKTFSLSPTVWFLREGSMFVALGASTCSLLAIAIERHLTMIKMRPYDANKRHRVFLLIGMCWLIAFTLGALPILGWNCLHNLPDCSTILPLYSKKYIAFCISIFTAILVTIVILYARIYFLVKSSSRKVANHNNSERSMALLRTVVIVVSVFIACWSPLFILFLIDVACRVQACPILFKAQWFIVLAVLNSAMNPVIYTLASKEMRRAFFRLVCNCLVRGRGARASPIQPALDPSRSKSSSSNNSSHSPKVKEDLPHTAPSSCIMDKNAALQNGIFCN
Sequence of NADPH oxidase 1 (Q9Y5S8 whole entry): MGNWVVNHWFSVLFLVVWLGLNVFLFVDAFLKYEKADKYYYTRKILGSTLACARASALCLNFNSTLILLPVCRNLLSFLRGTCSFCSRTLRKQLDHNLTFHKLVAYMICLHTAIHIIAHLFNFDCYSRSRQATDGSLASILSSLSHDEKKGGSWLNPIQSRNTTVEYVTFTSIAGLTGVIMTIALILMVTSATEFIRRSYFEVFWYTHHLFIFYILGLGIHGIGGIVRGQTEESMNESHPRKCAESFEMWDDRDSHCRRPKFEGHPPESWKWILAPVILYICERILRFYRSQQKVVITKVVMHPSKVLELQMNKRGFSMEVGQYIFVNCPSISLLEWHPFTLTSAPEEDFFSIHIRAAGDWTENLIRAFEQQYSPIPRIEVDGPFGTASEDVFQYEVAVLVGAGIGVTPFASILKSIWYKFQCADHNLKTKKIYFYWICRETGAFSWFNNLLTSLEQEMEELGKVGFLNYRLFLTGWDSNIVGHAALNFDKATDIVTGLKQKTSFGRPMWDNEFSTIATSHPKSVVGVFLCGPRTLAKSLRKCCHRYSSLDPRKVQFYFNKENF

Cc1ccc(NC(=O)CNC2CCS(=O)(=O)C2)cc1C (stereo not drawn)
IC50 [1]: > 100 µM (not active) | IC50 [2]: > 100 µM (inactive)

Cc1ccc(Cl)c(N2C(=O)C(Cl)=C(Cl)C2=O)c1Cl
IC50 (Bcl-2-related protein A1 [3]): > 100 µM (not active) | IC50 [4]: > 100 µM (not active) | IC50 (Bcl-2-related protein A1 [5]): 20.1 µM (active)

Cc1ccc(NC(=O)c2sc3nc(N)c(C#N)cc3c2N)cc1
EC50 [6]: > 180 µM (inactive) | EC50 [7]: 15.2 µM (active) | EC50 [8]: > 150 µM (inactive) | EC50 [9]: > 150 µM (inactive) | EC50 [10]: 1.2 µM (active)

Cc1cc(C(=O)N(C)C2CCCCC2)no1
EC50 [11]: > 50 µM (not active) | EC50 [12]: > 50 µM (not active) | EC50 [13]: > 10 µM (not active)

COc1ccc(NC(=O)Nc2ccc3c(c2)CCN3S(=O)(=O)c2ccccc2)cc1
IC50 (NADPH oxidase 1): > 17 µM (not active)

Cc1nc(C)c(C(=O)OCC(=O)c2cc(C)n(Cc3ccccc3)c2C)s1
EC50 [14]: > 30 µM (not active)

O=C(NCc1ccco1)c1cc2cc3ccc(Cl)cc3nc2o1
IC50 (Estrogen receptor [15]): 17.7 µM (active) | IC50 (Estrogen receptor beta): > 50 µM (not active)

COc1ccc(C2CC(c3c(-c4ccccc4)c4cc(Cl)ccc4[nH]c3=O)=NN2C(=O)CCC(=O)O)cc1 (stereo not drawn)
IC50 (Procathepsin L): > 59.6 µM (not active) | IC50 (Aminopeptidase N): 4.93 µM (active) | IC50 (Aspartyl aminopeptidase): > 73.5 µM (not active)

COc1ccc(NS(=O)(=O)c2cc(-c3cnc(C4CC4)o3)ccc2C)cc1
IC50 [16]: 2.08 µM (active) | AC50 [17]: 0.405 µM (active) | IC50 [18]: 70.5 µM (inactive)

COc1ccc(CNCc2ccc(Cl)cc2)cc1
IC50 [19]: 0.711 µM (active)

CCOc1ccccc1NC(=O)NC(C)c1ccc2c(c1)OCO2 (stereo not drawn)
EC50 [20]: 1.51 µM (active)

COc1cccc(C2CC(c3ccc(F)cc3)Nc3nc(N)nn32)c1 (stereo not drawn)
EC50 (Estrogen receptor [21]): 6.71 µM (not active)

COc1cccc(/C(C)=N/N=C(\C)c2cccc(OC)c2)c1
EC50 [22]: < 0.1 µM (active) | EC50 [23]: 1.47 µM (active) | EC50 [24]: 0.419 µM (active) | EC50 (H4): 38.7 µM (active) | EC50 [25]: 0.36 µM (active) | EC50 [26]: 0.488 µM (active) | AC50 (HeLa): 64.5 µM (active)
